Reference: paper PMC9826346, “One‐Pot Chemoenzymatic Synthesis of Microviridin Analogs Containing Functional Tags” (Chembiochem, 2022)
Bridge positions count the residues as written; N and C are the ends. Peptide text beside a SMILES is read from it. * marks the point of attachment. Biotin = O=C1N[C@H]2[C@H](CS[C@H]2CCCCC(=O)*)N1; Dansyl = CN(C)c1cccc2c(S(=O)(=O)*)cccc12; Propargyl = C#CC*

Experiments:
[1] = molecular target: porcine pancreas elastase (Sus scrofa, UniProt P00772); assay: biochemical
Chain of porcine pancreas elastase (P00772 27-266): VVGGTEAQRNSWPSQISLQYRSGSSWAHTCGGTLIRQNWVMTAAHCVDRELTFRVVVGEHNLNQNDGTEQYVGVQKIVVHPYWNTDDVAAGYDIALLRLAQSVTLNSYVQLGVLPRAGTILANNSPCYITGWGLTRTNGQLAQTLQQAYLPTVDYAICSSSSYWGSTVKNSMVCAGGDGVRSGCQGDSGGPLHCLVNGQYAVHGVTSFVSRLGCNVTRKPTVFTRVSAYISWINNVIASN
Experimental: (§1) Protease inhibition assay: Microviridins were checked for their inhibitory activity against trypsin and elastase. Therefore, microviridin concentrations of 0.01 μM, 0.1 μM, 1 μM, 10 μM and 100 μM were tested. A sample without microviridin was used as control. As substrates N α‐Benzoyl‐DL‐arginine 4‐nitroanilide hydrochloride (BAPNA) was used for the trypsin assay and N‐Succinyl‐Ala‐Ala‐Ala‐p‐nitroanilide (Suc‐AAA‐pNA) for the elastase assays. The trypsin assay was performed with 16.7 μg/mL (approximately 42.7 U/mL) bovine trypsin (Carl Roth (Germany)) and 108.5 μg/mL BAPNA (Sigma‐Aldrich (Germany)) in 50 mM Tris‐HCl, 20 mM CaCl2, 0.5 % DMSO, pH 7.5. The elastase assay was performed with 50 μg/mL (250 mU/mL) porcine pancreas elastase (Sigma‐Aldrich (Germany) and 500 μg/mL Suc‐AAA‐pNA (Sigma‐Aldrich (Germany)) in 50 mM Tris‐HCl, 20 mM CaCl2, pH 7.5. All microviridins were dissolved in water to a concentration of 500 μM except of tricyclic MvB_CP_N(dansyl), which was dissolved in water containing 10 % DMSO. Before adding the substrate, each enzyme was incubated for 5 min with the respective inhibitor at room temperature. Afterwards, the substrate was added, and the assays were incubated for 15 min (elastase assay) and 30 min (trypsin assay) at 37 °C. The enzymatic activity was measured spectrophotometrically (Varioscan Flash, Thermo Scientific) at 410 nm. The assays were done twice for each sample. IC50 values were calculated using the Quest Graph™ IC50 Calculator.[21]

bovine trypsin = bovine trypsin (Bos taurus, UniProt P00760); assay: biochemical
Chain of bovine trypsin (P00760 24-246): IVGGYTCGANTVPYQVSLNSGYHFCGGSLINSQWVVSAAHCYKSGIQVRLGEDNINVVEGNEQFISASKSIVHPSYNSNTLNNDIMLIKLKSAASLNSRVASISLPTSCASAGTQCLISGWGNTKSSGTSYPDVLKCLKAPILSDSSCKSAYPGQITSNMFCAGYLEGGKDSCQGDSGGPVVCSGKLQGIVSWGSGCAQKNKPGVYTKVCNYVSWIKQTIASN
Experimental: as §1

trypsin = settings: read-out: KD for the interaction of trypsin and microviridin J; cited from earlier work
Source text: Naturally, microviridins act as competitive inhibitors that bind tightly to their corresponding proteases in a substrate‐like manner, for which turnover is excluded. […] Therefore, the chemical probes that show protease inhibition in the range of the unmodified microviridin derivatives could be expected to work as molecular tools. However, since the activity of dansylated microviridin B is clearly compromised (Table 1), the compound's affinity for elastase might not be strong enough for diagnos ...

Daphnia = settings: microcrustaceans of the genus Daphnia; cited from earlier work
Source text: While the bioactivity and mode of action against mammalian serine proteases is well investigated for microviridins[[2a], [8]] and plesiocin,[9] their ecological roles and native targets remain elusive. […] However, neither specific protease targets could be identified, nor could a mode of action be specified. One hypothesis is based on the depletion of the amino acid pool essential for ...

Question: Which IC50 [1] does the source give for `CC(C)C[C@@H]1NC(=O)[C@@H](NC(=O)[C@@H](NC(=O)CNC(=O)[C@H](Cc2ccccc2)NC(=O)[C@@H](N)CCCCNC(=O)CCCC[C@@H]2SC[C@@H]3NC(=O)N[C@@H]32)[C@@H](C)O)[C@@H](C)OC(=O)C[C@@H]2NC(=O)[C@@H]3COC(=O)CC[C@H](NC(=O)[C@H](Cc4c[nH]c5ccccc45)NC2=O)C(=O)N[C@H](C(=O)N[C@@H](Cc2ccc(O)cc2)C(=O)O)CCC(=O)NCCCC[C@H](NC1=O)C(=O)N[C@@H](Cc1ccc(O)cc1)C(=O)N1CCC[C@H]1C(=O)N3` [MvB_CP_N(Bio)cy3 (5)] (H-K(Biotin)FGTTLKYPSDWEEY-OH; ester 5-11, 10-13; lactam 7-14) here?
Answer: Its IC50 is 1.24 ± 0.64 µM.

Question: For `CC(C)C[C@@H]1NC(=O)[C@@H](NC(=O)[C@@H](NC(=O)CNC(=O)[C@H](Cc2ccccc2)NS(=O)(=O)c2cccc3c(N(C)C)cccc23)[C@@H](C)O)[C@@H](C)OC(=O)C[C@@H]2NC(=O)[C@@H]3COC(=O)CC[C@H](NC(=O)[C@H](Cc4c[nH]c5ccccc45)NC2=O)C(=O)N[C@H](C(=O)N[C@@H](Cc2ccc(O)cc2)C(=O)O)CCC(=O)NCCCC[C@H](NC1=O)C(=O)N[C@@H](Cc1ccc(O)cc1)C(=O)N1CCC[C@H]1C(=O)N3` [MvB_CP_N(Dansyl)cy3 (6)] (Dansyl-FGTTLKYPSDWEEY-OH; ester 4-10, 9-12; lactam 6-13), which IC50 [1] is on record?
Answer: Its IC50 is 28 ± 7.17 µM.

Question: Which IC50 [1] does the source give for `CC(C)C[C@@H]1NC(=O)[C@@H](NC(=O)[C@@H](NC(=O)CNC(=O)[C@@H](N)Cc2ccccc2)[C@@H](C)O)[C@@H](C)OC(=O)C[C@@H]2NC(=O)[C@@H]3COC(=O)CC[C@H](NC(=O)[C@H](Cc4c[nH]c5ccccc45)NC2=O)C(=O)N[C@H](C(=O)N[C@@H](Cc2ccc(O)cc2)C(=O)O)CCC(=O)NCCCC[C@H](NC1=O)C(=O)N[C@@H](Cc1ccc(O)cc1)C(=O)N1CCC[C@H]1C(=O)N3` [MvB_CPcy3 (4)] (H-FGTTLKYPSDWEEY-OH; ester 4-10, 9-12; lactam 6-13) here?
Answer: The IC50 was 0.33 ± 0.02 µM.

Question: Which IC50 (bovine trypsin) does the source give for `CC[C@H](C)[C@H](NC(=O)[C@@H](N)CCCCNC(=O)CCCC[C@@H]1SC[C@@H]2NC(=O)N[C@@H]21)C(=O)N[C@@H](CO)C(=O)N[C@@H]1C(=O)N[C@@H](CCCNC(=N)N)C(=O)N[C@H]2CCCCNC(=O)CC[C@@H](C(=O)N[C@@H](Cc3c[nH]c4ccccc34)C(=O)O)NC(=O)[C@@H]3CCC(=O)OC[C@H](NC(=O)[C@@H]4CCCN4C(=O)[C@H](Cc4ccc(O)cc4)NC2=O)C(=O)N[C@@H](CC(=O)O[C@@H]1C)C(=O)N[C@@H](Cc1c[nH]c2ccccc12)C(=O)N3` [MvJ_CP_N(Bio)cy3 (2)] (H-K(Biotin)ISTRKYPSDWEEW-OH; ester 4-10, 9-12; lactam 6-13) here?
Answer: Its IC50 is 3.53 ± 0.3 µM.

Question: Which IC50 (bovine trypsin) does the source give for `C#CCOc1ccc(C[C@H](N)C(=O)N[C@H](C(=O)N[C@@H](CO)C(=O)N[C@@H]2C(=O)N[C@@H](CCCNC(=N)N)C(=O)N[C@H]3CCCCNC(=O)CC[C@@H](C(=O)N[C@@H](Cc4c[nH]c5ccccc45)C(=O)O)NC(=O)[C@@H]4CCC(=O)OC[C@H](NC(=O)[C@@H]5CCCN5C(=O)[C@H](Cc5ccc(O)cc5)NC3=O)C(=O)N[C@@H](CC(=O)O[C@@H]2C)C(=O)N[C@@H](Cc2c[nH]c3ccccc23)C(=O)N4)[C@@H](C)CC)cc1` [MvJ_CP_N(Prop)cy3 (3)] (H-Y(Propargyl)ISTRKYPSDWEEW-OH; ester 4-10, 9-12; lactam 6-13) here?
Answer: Its IC50 is 1.64 ± 0.12 µM.

Question: Which IC50 (bovine trypsin) does the source give for `CC[C@H](C)[C@H](N)C(=O)N[C@@H](CO)C(=O)N[C@@H]1C(=O)N[C@@H](CCCNC(=N)N)C(=O)N[C@H]2CCCCNC(=O)CC[C@@H](C(=O)N[C@@H](Cc3c[nH]c4ccccc34)C(=O)O)NC(=O)[C@@H]3CCC(=O)OC[C@H](NC(=O)[C@@H]4CCCN4C(=O)[C@H](Cc4ccc(O)cc4)NC2=O)C(=O)N[C@@H](CC(=O)O[C@@H]1C)C(=O)N[C@@H](Cc1c[nH]c2ccccc12)C(=O)N3` [MvJ_CPcy3 (1)] (H-ISTRKYPSDWEEW-OH; ester 3-9, 8-11; lactam 5-12) here?
Answer: The IC50 was 1.09 ± 0.09 µM.

Question: What does the source list for microviridin J?
Answer: Kd (trypsin): 0.68 µM; Effect on Daphnia (Daphnia): lethal molting disruption
